# Reference: Sander's compilation of Henry's law constants (doi:10.1016/0045-6535(88)90028-8)
# Assay: Henry solubility constant Hcp at 298.15 K (mol/(m3 Pa))
# Conditions: reference: Dunnivant and Elzerman (1988)
row,Structure (SMILES),Henry solubility constant Hcp
1,"Clc1cccc(-c2cccc(Cl)c2Cl)c1Cl [2,2',3,3'-tetrachlorobiphenyl]",0.049
2,"Clc1cc(Cl)c(-c2cc(Cl)c(Cl)cc2Cl)cc1Cl [2,2',4,4',5,5'-hexachlorobiphenyl]",0.075
3,"Clc1cc(Cl)c(-c2c(Cl)cc(Cl)cc2Cl)c(Cl)c1 [2,2',4,4',6,6'-hexachlorobiphenyl]",0.013
4,"Clc1ccc(Cl)c(-c2cc(Cl)c(Cl)cc2Cl)c1 [2,2',4,5,5'-pentachlorobiphenyl]",0.039
5,"Clc1ccc(Cl)c(-c2cc(Cl)ccc2Cl)c1 [2,2',5,5'-tetrachlorobiphenyl]",0.029
6,"Clc1ccc(Cl)c(-c2ccccc2Cl)c1 [2,2',5-trichlorobiphenyl]",0.026
7,"Clc1cccc(Cl)c1-c1c(Cl)cccc1Cl [2,2',6,6'-tetrachlorobiphenyl]",0.018
8,"Clc1ccccc1-c1ccccc1Cl [2,2'-dichlorobiphenyl]",0.029
9,"Clc1cccc(-c2cc(Cl)ccc2Cl)c1 [2,3',5-trichlorobiphenyl]",0.03
10,"Clc1cc(Cl)c(-c2ccccc2)c(Cl)c1 [2,4,6-trichlorobiphenyl]",0.015
11,"Clc1ccc(-c2ccccc2)c(Cl)c1 [2,4-dichlorobiphenyl]",0.028
12,"Clc1ccc(Cl)c(-c2ccccc2)c1 [2,5-dichlorobiphenyl]",0.025
13,"Clc1ccc(-c2ccc(Cl)c(Cl)c2)cc1Cl [3,3',4,4'-tetrachlorobiphenyl]",0.1
14,"Clc1cccc(-c2cccc(Cl)c2)c1 [3,3'-dichlorobiphenyl]",0.042
15,"Clc1ccc(-c2ccccc2)cc1Cl [3,4-dichlorobiphenyl]",0.048
16,"Clc1ccc(-c2ccc(Cl)cc2)cc1 [4,4'-dichlorobiphenyl]",0.05
